In US20150174034A1, “TYROSINASE INHIBITORS” (Avon Products, Inc., priority 2013, published 2015):

Key:
[1] = test system: Human Epidermal Melanocytes, neonatal, darkly pigmented donor (HEMn-DP); assay: Human primary melanocyte pigmentation assay (HEMn-DP); assay type: cell-based; settings: 5 days, normalized to cell viability
Description: The effects of various test compounds on melanin productions were determined by performing assays using Human Epidermal Melanocytes, neonatal, darkly pigmented donor (HEMn-DP). The HEMn-DP cells were seeded (Invitrogen; cat. #: C-202-5C) into 6-well tissue culture-treated plates (BD Falcon) and treated with test actives or controls in Medium 254 (Invitrogen; cat. #: M-254-500) supplemented with 1% HMSG (Invitrogen; cat. #: S-002-5) and 1% P/S. The cells were examined for their ability to modulate pigment formation. […] Tests were performed in triplicates each. Following the treatment period (5 days), supernatants were aspirated. The melanin was extracted with 0.5 ml of 2N NaOH for 30 minutes at 80° C. The level of melanin synthesized within the cells was quantified by reading the absorbance at 405 nm using a standard microplate reader (Tecan Group Ltd.).
The cell viability was determined using the MTT conversion method. The MTT conversion method measures the reduction of the MTT dye from a yellow colored, water-soluble, tetrazolium salt to a bluish-purple colored insoluble formazan precipitate by NAD(P)H-dependent microsomal dehydrogenase enzymes, which only function in viable cells. The intensity of the blue color is indicative of cell viability. […] The cells were then exposed to MTT dye solution (1 mg/ml) for two to three hours. Formazan material was solubilized with reagent alcohol (95% ethanol: 5% isopropanol) and shaken on an orbital shaker for 15-30 minutes. MTT dye uptake and conversion by viable cells were determined by measuring the extracted formazan at 570 nm using a microplate reader. Total pigmentation was calculated and normalized to cell viability values. The average percent change in melanin relative to control of the triplicates from the Human Primary Melanocyte Pigmentation Assay (HEMn-DP Pigmentation) is reported in the Table 3 in accordance with the scale: 0: <10% decrease in pigmentation level; +: between 11-30% decrease; ++: between 31-50% decrease; +++: between 51-70% decrease; ++++: >71% decrease; C=cytotoxic.

[2] = test system: MELANODERM (MEL-300-B) human skin model; assay: 3D skin equivalent tissue pigmentation assay (MELANODERM); assay type: cell-based; settings: topical, tissues collected Day 11
Description: The effect of the tyrosinase inhibitors on melanin levels was investigated using a MELANODERM™ (MEL-300-B, MatTek Corp., Ashland, Mass.) human skin model. MELANODERM™ is a viable reconstituted three-dimensional human skin equivalent containing melanocytes derived from African-American donors. Tissues were maintained in culture medium EPI-100-NMM-113 at 37° C. as recommended by the manufacturer.
10 μl of the solution was applied topically to the MELANODERM™ tissue while culture medium was added on days 1, 2, 4, 7, and 9. Control tissues were treated with the 10 μl of corresponding vehicle only. On Day 11, tissues were collected and homogenized in a buffer containing 1% SDS, 50 mM EDTA, and 10 mM Tris, pH 6.8. To each homogenate, protease K (5 mg/ml) was added and incubated overnight at 45° C. Additional protease K was added and incubated for 4 hours at 45° C., followed by the addition of 0.5M sodium carbonate and 30% H2O2 and incubation at 80° C. for 30 minutes. The samples were cooled down to room temperature, and extracted with chloroform/methanol (2:1). After centrifugation at 10,000 g for 10 minutes, absorbance of the top phase was measured at 450 nm. Percent change in melanin levels in treated tissue was calculated relative to control. The average percent change in melanin relative to control of the three tissues is reported in the Table 4 in accordance with the scale: 0: <7% decrease in pigmentation level; +: between 8-14% decrease; ++: between 15-20% decrease; +++: between 21-30% decrease; ++++: >31% decrease; C=cytotoxic

B16 mouse melanoma cells = assay: Inhibition of melanin production, B16 melanoma cell assay; assay type: cell-based; settings: 4 days, alpha MSH, normalized to cell viability
Description: The effects of various test compounds on melanin levels were determined by performing assays using B16 melanoma cells. These cells are known to constitutively produce melanin and are a commonly utilized and accepted model system for monitoring the inhibition of melanin synthesis. The B16 mouse melanoma cells were seeded (ATCC, cat. #: CRL-6475) into 96-well tissue culture-treated plates (BD Falcon) and treated with test actives or controls in phenol red free DMEM (Mediatech; cat. #: 17-205-CV) with 2 nanogram/ml of alpha MSH (Fluka; cat #:63605). The cells were examined for their ability to modulate pigment formation. […] Tests were performed in 6 replicates each. Following the treatment period (4 days), the level of pigment produced or melanin synthesized was quantified by reading the absorbance at 540 nm using a standard microplate reader (Tecan Group Ltd.).
After quantifying the amount of melanin, cell viability was determined using the MTT conversion method. The MTT conversion method measures the reduction of the MTT dye from a yellow colored, water-soluble, tetrazolium salt to a bluish-purple colored insoluble formazan precipitate by NAD(P)H-dependent microsomal dehydrogenase enzymes, which only function in viable cells. The intensity of the blue color is indicative of cell viability. After quantifying the amount of melanin pigment produced, the cells were exposed to MTT dye solution (1 mg/ml) for two to three hours. Formazan material was solubilized with reagent alcohol (95% ethanol: 5% isopropanol) and shaken on an orbital shaker for 15-30 minutes. MTT dye uptake and conversion by viable cells were determined by measuring the extracted formazan at 570 nm using a microplate reader. Total pigmentation was calculated, normalized to cell viability values and expressed as the average percent change in melanin activity relative to control of the six experiments performed.
The assay data in Table 2 uses the following scale: 0: <10% decrease; +: between […] decrease; ++: 31-50% decrease; +++: between 51-70% decrease; ++++: >71% decrease; C=cytotoxic

Mushroom tyrosinase = Mushroom tyrosinase assay; assay type: biochemical; settings: L-Tyrosine substrate, 25° C., 30 min
Description: Mushroom tyrosinase and L-Tyrosine were obtained from Sigma-Aldrich, Inc. (St. Louis, Mo.). The enzyme activity was measured in buffer containing 100 mM phosphate buffer pH 6.8, 5% absolute ethanol, 2 micrograms/milliliter mushroom tyrosinase, and 0.2 mg/ml L-Tyrosine. The reaction (conversion of L-Tyrosine to DOPAchrome) was conducted in triplicates at 25° C. for 30 min, and absorbance was then measured at 492 nm. Kojic Acid was used as a positive control inhibitor in these assays. Percent change in tyrosinase activity relative to vehicle control was calculated.

| Tyrosinase Inhibition (percent change in tyrosinase activity compared to DMSO vehicle control) (Mushroom tyrosinase; concentration 0.001%) [%] | Tyrosinase Inhibition (percent change in tyrosinase activity compared to DMSO vehicle control) (Mushroom tyrosinase; concentration 0.01%) [%] | SMILES | Human primary melanocyte pigmentation assay (change in melanin compared to DMSO vehicle control) ([1]; concentration 0.0001%) | Human primary melanocyte pigmentation assay (change in melanin compared to DMSO vehicle control) ([1]; concentration 0.001%) | 3D Tissue Pigmentation Assay (change in melanin compared to vehicle control) ([2]; concentration 0.05%) | 3D Tissue Pigmentation Assay (change in melanin compared to vehicle control) ([2]; concentration 0.1%) | B16 Assay Pigmentation Decrease (percent change in melanin compared to DMSO vehicle control) (B16 mouse melanoma cells; concentration 0.0001%) | B16 Assay Pigmentation Decrease (percent change in melanin compared to DMSO vehicle control) (B16 mouse melanoma cells; concentration 0.001%) |
| --- | --- | --- | --- | --- | --- | --- | --- | --- |
| – | – | C/C(=N/NC(=S)NCC1CCCO1)c1ccc2c(c1)OCO2 (centres unmarked) [AV1221] | + (between 11-30% decrease) | ++++ (>71% decrease) | +++ (between 21-30% decrease) | ++ (between 15-20% decrease) | ++ (31-50% decrease) | ++++ (>71% decrease) |
| −36 | −75 | Oc1ccc(C=NNC(=S)NCC2CCCO2)c(O)c1 (centres unmarked) [AV6989] | – | – | – | – | −79% | – |
| – | – | C/C(=N/NC(=S)NC(C)C)c1ccc2c(c1)OCO2 [AV2043] | + (between 11-30% decrease) | ++ (between 31-50% decrease) | +++ (between 21-30% decrease) | +++ (between 21-30% decrease) | ++ (31-50% decrease) | – |
| – | – | Cc1ccc(/C=N/NC(=S)NCC2CCCO2)s1 (centres unmarked) [AV3793] | 0 (<10% decrease in pigmentation level) | +++ (between 51-70% decrease) | ++ (between 15-20% decrease) | +++ (between 21-30% decrease) | + (between 20-30% decrease) | +++ (between 51-70% decrease) |
